According to ChEMBL document CHEMBL3396960, “Synthesis and pharmacological characterization of 2-aminobenzaldehyde oxime analogs as dual inhibitors of neutrophil elastase and proteinase 3” (Bioorg Med Chem, 2015):
Activity calls are given as the source filed them. The calls are words filed in the database; no cut-off is given here.

Assays:
Cathepsin G = molecular target: T1, Cathepsin G (Homo sapiens, UniProt P08311); test: Inhibition of human cathepsin G using N-succinyl-Ala-Ala-Pro-Phe-p-nitroanilide as substrate measured for 180 mins by spectrophotometry
T1 sequence (P08311 whole entry): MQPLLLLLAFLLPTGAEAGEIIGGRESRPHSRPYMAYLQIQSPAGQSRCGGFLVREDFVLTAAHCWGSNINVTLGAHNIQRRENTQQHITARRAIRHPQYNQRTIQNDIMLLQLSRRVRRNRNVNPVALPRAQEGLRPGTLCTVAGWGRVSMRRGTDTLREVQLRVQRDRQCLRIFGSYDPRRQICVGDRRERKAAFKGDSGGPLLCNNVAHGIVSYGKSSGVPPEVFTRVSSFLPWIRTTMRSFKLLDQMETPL

Neutrophil [1] = test: cells; settings: Homo sapiens
Neutrophil elastase [2] = molecular target: T2, Neutrophil elastase (Homo sapiens, UniProt P08246); test: Inhibition of human neutrophil elastase measured for 30 mins by spectrophotometry
T2 sequence (P08246 whole entry): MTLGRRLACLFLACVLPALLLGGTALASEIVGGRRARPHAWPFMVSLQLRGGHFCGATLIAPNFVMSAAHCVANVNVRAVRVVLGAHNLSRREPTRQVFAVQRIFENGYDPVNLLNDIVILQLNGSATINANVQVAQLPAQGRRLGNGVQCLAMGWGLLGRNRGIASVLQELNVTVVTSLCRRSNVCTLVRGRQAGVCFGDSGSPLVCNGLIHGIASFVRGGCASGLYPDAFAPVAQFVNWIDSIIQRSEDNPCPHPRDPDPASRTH

Myeloblastin = molecular target: T3, Myeloblastin (Homo sapiens, UniProt P24158); test: Inhibition of Pr3 (unknown origin) using t-butyloxycarbonyl-Ala-Ala-Nva-thiobenzyl ester as substrate measured for 180 mins by spectrophotometry
T3 sequence (P24158 whole entry): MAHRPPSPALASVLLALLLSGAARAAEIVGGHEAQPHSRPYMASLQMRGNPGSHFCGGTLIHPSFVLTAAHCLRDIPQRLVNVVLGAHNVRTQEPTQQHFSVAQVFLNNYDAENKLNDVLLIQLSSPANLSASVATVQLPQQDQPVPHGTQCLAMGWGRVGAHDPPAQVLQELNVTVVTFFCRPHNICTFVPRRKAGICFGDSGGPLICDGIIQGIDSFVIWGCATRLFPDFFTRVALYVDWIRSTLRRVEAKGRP

Neutrophil [3] = test: cells; settings: Homo sapiens; remark: listed apart in the source
[4] = Inhibition of bovine pancreatic trypsin using Nalpha-benzoyl-L-arginine-7-amido-4-methylcoumarin; parameters: species or system Bos taurus
[5] = Inhibition of bovine pancreas chymotrypsin using N-succinyl-Ala-Ala-Pro-Phe-7-amido-4-methylcoumarin by spectrophotometry; parameters: species or system Bos taurus
Prothrombin = Prothrombin (Bos taurus, UniProt P00735); test: Inhibition of bovine plasma thrombin using Benzoyl-Phe-Val-Arg-7-amido-4-methylcoumarin hydrochloride by spectrophotometry
Neutrophil elastase [6] = molecular target: T4, Neutrophil elastase (Mus musculus, UniProt Q3UP87); test: Inhibition of recombinant mouse neutrophil elastase using methoxysuccinyl-Ala-Ala-Pro-Val-pnitroanilide as substrate preincubated for 15 mins before substrate addition measured after 90 mins by spectrophotometry
T4 sequence (Q3UP87 whole entry): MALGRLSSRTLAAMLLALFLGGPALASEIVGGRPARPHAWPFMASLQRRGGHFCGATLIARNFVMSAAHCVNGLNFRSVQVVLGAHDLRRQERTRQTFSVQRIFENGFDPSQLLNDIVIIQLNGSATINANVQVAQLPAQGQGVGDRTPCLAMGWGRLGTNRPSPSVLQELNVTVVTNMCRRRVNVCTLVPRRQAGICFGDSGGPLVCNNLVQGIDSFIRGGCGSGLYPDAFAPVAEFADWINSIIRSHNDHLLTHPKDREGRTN

Pancreatic elastase = Pancreatic elastase (Sus scrofa, UniProt P08419+P00772); test: Inhibition of porcine pancreatic elastase using methoxysuccinyl-Ala-Ala-Pro-Val-p-nitroanilide as substrate preincubated for 15 mins before substrate addition measured after 60 mins by spectrophotometry; assay type: protein assay
Mus musculus [7] = test: Antiinflammatory activity in C57BL/6 mouse assessed as inhibition of human neutrophil elastase-induced edema compound treated 1 hr prior challenge at 100 mg/kg, ip measured up to 240 mins; assay type: functional, organism-based; parameters: dose 100 mg/kg
Mus musculus [8] = test: Antiinflammatory activity in C57BL/6 mouse assessed as inhibition of LPS-induced edema compound treated 1 hr prior challenge at 100 mg/kg, ip measured up to 240 mins; assay type: functional, organism-based; parameters: dose 100 mg/kg
Mus musculus [9] = test: Protection from LPS-induced acute lung injury in C57BL/6 mouse assessed as inhibition of MPO activity in lung tissue treated 1 hr prior challenge at 100 mg/kg, ip
Mus musculus [10] = test: Protection from LPS-induced acute lung injury in C57BL/6 mouse assessed as inhibition of leukocyte infiltration in lung treated 1 hr prior challenge at 100 mg/kg, ip
Mus musculus [11] = test: Protection from LPS-induced acute lung injury in C57BL/6 mouse assessed as inhibition of LPS-induced alveolar thickening treated 1 hr prior LPS challenge at 100 mg/kg, ip measured 6 hrs post LPS injection by hematoxylin and eosin staining method
Mus musculus [12] = test: Protection from LPS-induced acute lung injury in C57BL/6 mouse assessed as inhibition of LPS-induced leukocyte infiltration treated 1 hr prior LPS challenge at 100 mg/kg, ip measured 6 hrs post LPS injection by hematoxylin and eosin staining method
Mus musculus [13] = test: Protection from LPS-induced acute lung injury in C57BL/6 mouse assessed as inhibition of LPS-induced lung tissue destruction treated 1 hr prior LPS challenge at 100 mg/kg, ip measured 6 hrs post LPS injection by hematoxylin and eosin staining method
Mus musculus [14] = test: Protection from LPS-induced acute lung injury in C57BL/6 mouse assessed as inhibition of LPS-induced diffuse edematous changes treated 1 hr prior LPS challenge at 100 mg/kg, ip measured 6 hrs post LPS injection by hematoxylin and eosin staining method
Mus musculus [15] = test: Toxicity in C57BL/6 mouse assessed as effect on pulmonary alveoli at 100 mg/kg, ip by hematoxylin and eosin staining method; assay type: organism-based; parameters: dose 100 mg/kg, route intraperitoneal; settings: in vivo
Mus musculus [16] = test: Antiinflammatory activity in C57BL/6 mouse assessed as inhibition of human neutrophil elastase-induced edema compound treated ip 1 hr prior challenge measured up to 240 mins post dose; assay type: functional, organism-based
Mus musculus [17] = test: Antiinflammatory activity in C57BL/6 mouse assessed as inhibition of human neutrophil elastase-induced edema compound treated 1 hr prior challenge at 50 to 100 mg/kg, ip; assay type: functional, organism-based; settings: TDE = time-dependent effect
Mus musculus [18] = test: Toxicity in C57BL/6 mouse assessed as effect on lung structure at 100 mg/kg, ip by hematoxylin and eosin staining method; assay type: organism-based; parameters: dose 100 mg/kg, route intraperitoneal; settings: in vivo

CC/C(=N/O)c1ccccc1NS(=O)(=O)c1ccc(OC(=O)C(C)(C)C)cc1
IC50 (Cathepsin G): > 10 µM | IC50 (Neutrophil [1]): 13.4 µM

COC(=O)c1ccccc1NS(=O)(=O)c1ccc(NC(=O)C(C)(C)C)cc1
IC50 (Neutrophil elastase [2]): > 10 µM | IC50 (Myeloblastin): > 10 µM | IC50 (Cathepsin G): > 10 µM | IC50 (Neutrophil [1]): > 20 µM | IC50 (Neutrophil [3]): 13.6 µM

CC(C)(C)C(=O)Oc1ccc(S(=O)(=O)Nc2ccccc2C(=O)NCC(=O)O)cc1
IC50 (Myeloblastin): 0.34 µM | IC50 (Cathepsin G): > 10 µM | IC50 [4]: > 10 µM | IC50 [5]: 1.95 µM | IC50 (Prothrombin): > 10 µM | IC50 (Neutrophil elastase [6]): 0.145 µM | IC50 (Pancreatic elastase): 2.18517 µM | inhibition (Mus musculus [7]): Active | inhibition (Mus musculus [8]): Active | IC50 (Neutrophil [1]): > 20 µM | inhibition (Mus musculus [9]): Active | inhibition (Mus musculus [10]): Active | inhibition (Mus musculus [11]): Active | inhibition (Mus musculus [12]): Active | inhibition (Mus musculus [13]): Active | inhibition (Mus musculus [14]): Active

CC(=O)c1ccccc1NS(=O)(=O)c1ccc(OC(=O)C(C)(C)C)cc1
IC50 (Neutrophil elastase [2]): 0.11 µM | IC50 (Cathepsin G): > 10 µM | IC50 (Neutrophil [1]): > 20 µM | IC50 (Neutrophil [3]): 0.09 µM

CCOC(=O)c1ccccc1NC(=O)c1ccc(OC(=O)C(C)(C)C(F)(F)F)cc1
IC50 (Neutrophil elastase [2]): > 10 µM | IC50 (Myeloblastin): > 10 µM | IC50 (Cathepsin G): > 10 µM | IC50 (Neutrophil [1]): > 20 µM | IC50 (Neutrophil [3]): 13.8 µM

CC(C)(C)C(=O)Oc1ccc(S(=O)(=O)Nc2ccccc2C(=O)NCCO)cc1
IC50 (Neutrophil elastase [2]): 0.13 µM | IC50 (Cathepsin G): > 10 µM | IC50 (Neutrophil [1]): > 20 µM | IC50 (Neutrophil [3]): 0.05 µM

CCC/C(=N/O)c1ccccc1NS(=O)(=O)c1ccc(OC(=O)C(C)(C)C)cc1
IC50 (Cathepsin G): > 10 µM | IC50 (Neutrophil [1]): > 20 µM

COC(=O)c1ccccc1NC(=O)c1ccc(OC(=O)C(C)(C)C)cc1
IC50 (Neutrophil elastase [2]): 0.82 µM | IC50 (Cathepsin G): > 10 µM | IC50 (Neutrophil [1]): > 20 µM | IC50 (Neutrophil [3]): 0.55 µM

CO/N=C(\C)c1ccccc1NS(=O)(=O)c1ccc(OC(=O)C(C)(C)C)cc1
IC50 (Cathepsin G): > 10 µM | IC50 (Neutrophil [1]): > 20 µM

CCCCC(=O)c1ccccc1NS(=O)(=O)c1ccc(OC(=O)C(C)(C)C)cc1
IC50 (Neutrophil elastase [2]): 2.24 µM | IC50 (Cathepsin G): > 10 µM | IC50 (Neutrophil [1]): > 20 µM | IC50 (Neutrophil [3]): 0.11 µM

CCOC(=O)c1ccccc1NC(=O)c1ccc(OC(=O)C(C)(C)C)cc1
IC50 (Neutrophil elastase [2]): 0.48 µM | IC50 (Cathepsin G): > 10 µM | IC50 (Neutrophil [1]): > 20 µM | IC50 (Neutrophil [3]): 0.3 µM

CCCOC(=O)c1ccccc1NC(=O)c1ccc(OC(=O)C(C)(C)C)cc1
IC50 (Neutrophil elastase [2]): 1.23 µM | IC50 (Cathepsin G): > 10 µM | IC50 (Neutrophil [1]): > 20 µM | IC50 (Neutrophil [3]): 0.62 µM

COC(=O)c1ccccc1NC(=O)c1ccc(OC(=O)C(C)(C)C(F)(F)F)cc1
IC50 (Neutrophil elastase [2]): > 10 µM | IC50 (Myeloblastin): > 10 µM | IC50 (Cathepsin G): > 10 µM | IC50 (Neutrophil [1]): > 20 µM | IC50 (Neutrophil [3]): > 20 µM

CCCOC(=O)c1ccccc1NC(=O)c1ccc(OC(=O)C(C)(C)C(F)(F)F)cc1
IC50 (Neutrophil elastase [2]): > 10 µM | IC50 (Myeloblastin): > 10 µM | IC50 (Cathepsin G): > 10 µM | IC50 (Neutrophil [1]): > 20 µM | IC50 (Neutrophil [3]): > 20 µM

CC(C)(C)C(=O)Oc1ccc(S(=O)(=O)Nc2ccccc2/C=N\O)cc1
IC50 (Cathepsin G): > 10 µM | IC50 (Neutrophil [1]): > 20 µM

C/C(=N/O)c1ccccc1NS(=O)(=O)c1ccc(OC(=O)C(C)(C)C)cc1
Activity (Mus musculus [15]): Non-toxic | IC50 (Cathepsin G): > 10 µM | IC50 [4]: > 10 µM | IC50 [5]: 0.594 µM | IC50 (Prothrombin): > 10 µM | IC50 (Neutrophil elastase [6]): 0.191 µM | IC50 (Pancreatic elastase): 1.88198 µM | inhibition (Mus musculus [16]): Dose-dependent effect | inhibition (Mus musculus [17]): tde | inhibition (Mus musculus [8]): Active | Activity (Mus musculus [18]): Non-toxic | IC50 (Neutrophil [1]): 19.6 µM | inhibition (Mus musculus [9]): Active | inhibition (Mus musculus [10]): Active | inhibition (Mus musculus [11]): Active | inhibition (Mus musculus [12]): Active | inhibition (Mus musculus [13]): Active | inhibition (Mus musculus [14]): Active

CC(C)(C)C(=O)Oc1ccc(S(=O)(=O)Nc2ccccc2C(=O)OCCO)cc1
IC50 (Neutrophil elastase [2]): 0.29 µM | IC50 (Cathepsin G): > 10 µM | IC50 (Neutrophil [1]): > 20 µM | IC50 (Neutrophil [3]): 0.05 µM

CO/N=C(/C)c1ccccc1NS(=O)(=O)c1ccc(OC(=O)C(C)(C)C)cc1
IC50 (Cathepsin G): > 10 µM | IC50 (Neutrophil [1]): > 20 µM

CCCC(=O)c1ccccc1NS(=O)(=O)c1ccc(OC(=O)C(C)(C)C)cc1
IC50 (Neutrophil elastase [2]): 0.37 µM | IC50 (Cathepsin G): > 10 µM | IC50 (Neutrophil [1]): > 20 µM

CC(C)(C)[S+]([O-])Nc1ccc(S(=O)(=O)Nc2ccccc2C=O)cc1 (centres undefined)
IC50 (Neutrophil elastase [2]): > 10 µM | IC50 (Myeloblastin): > 10 µM | IC50 (Cathepsin G): > 10 µM | IC50 (Neutrophil [1]): > 20 µM | IC50 (Neutrophil [3]): 9.41 µM

CCC(=O)c1ccccc1NS(=O)(=O)c1ccc(OC(=O)C(C)(C)C)cc1
IC50 (Neutrophil elastase [2]): 0.19 µM | IC50 (Cathepsin G): > 10 µM | IC50 (Neutrophil [1]): > 20 µM

CC(C)(C)C(=O)Oc1ccc(S(=O)(=O)Nc2ccccc2C=O)cc1
IC50 (Neutrophil elastase [2]): 0.12 µM | IC50 (Cathepsin G): > 10 µM | IC50 (Neutrophil [1]): > 20 µM | IC50 (Neutrophil [3]): 0.05 µM

COC(=O)c1ccccc1NS(=O)(=O)c1ccc(OC(=O)C(C)(C)C(F)(F)F)cc1
IC50 (Cathepsin G): > 10 µM | IC50 (Neutrophil [3]): 4.94 µM
